Experimental data reported in article doi:10.1101/2023.11.24.568596v1 (biorxiv, 2023).

Tests used:
Conditions in all cases: binder
MER = target: T1, MER (Homo sapiens, UniProt Q12866)
T1 sequence (Q12866 1-999): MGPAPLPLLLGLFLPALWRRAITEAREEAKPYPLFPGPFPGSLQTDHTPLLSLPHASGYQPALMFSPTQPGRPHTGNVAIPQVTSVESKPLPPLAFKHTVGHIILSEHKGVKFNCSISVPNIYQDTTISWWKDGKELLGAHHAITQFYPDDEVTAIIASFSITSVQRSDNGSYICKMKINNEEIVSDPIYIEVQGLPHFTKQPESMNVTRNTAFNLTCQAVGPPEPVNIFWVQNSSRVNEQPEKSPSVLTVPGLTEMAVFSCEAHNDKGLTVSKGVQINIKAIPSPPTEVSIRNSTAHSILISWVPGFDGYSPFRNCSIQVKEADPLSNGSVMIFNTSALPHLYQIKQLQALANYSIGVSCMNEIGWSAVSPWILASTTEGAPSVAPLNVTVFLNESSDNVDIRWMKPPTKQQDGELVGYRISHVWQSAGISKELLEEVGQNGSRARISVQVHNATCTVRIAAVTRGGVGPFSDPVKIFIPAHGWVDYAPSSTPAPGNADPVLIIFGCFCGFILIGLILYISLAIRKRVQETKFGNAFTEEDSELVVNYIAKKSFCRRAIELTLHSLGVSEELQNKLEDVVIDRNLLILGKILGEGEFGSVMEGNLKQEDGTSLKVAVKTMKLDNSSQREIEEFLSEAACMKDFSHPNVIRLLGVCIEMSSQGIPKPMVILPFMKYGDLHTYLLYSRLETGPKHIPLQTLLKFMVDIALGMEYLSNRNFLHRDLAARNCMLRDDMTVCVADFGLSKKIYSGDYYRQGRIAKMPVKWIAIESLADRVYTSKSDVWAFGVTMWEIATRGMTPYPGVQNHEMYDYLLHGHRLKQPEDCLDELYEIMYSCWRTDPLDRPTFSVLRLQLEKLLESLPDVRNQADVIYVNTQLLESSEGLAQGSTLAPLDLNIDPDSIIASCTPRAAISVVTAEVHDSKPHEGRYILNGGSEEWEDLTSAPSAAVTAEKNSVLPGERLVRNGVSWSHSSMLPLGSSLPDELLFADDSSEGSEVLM

FECH = target: T2, FECH (Homo sapiens, UniProt P22830)
T2 sequence (P22830 1-423): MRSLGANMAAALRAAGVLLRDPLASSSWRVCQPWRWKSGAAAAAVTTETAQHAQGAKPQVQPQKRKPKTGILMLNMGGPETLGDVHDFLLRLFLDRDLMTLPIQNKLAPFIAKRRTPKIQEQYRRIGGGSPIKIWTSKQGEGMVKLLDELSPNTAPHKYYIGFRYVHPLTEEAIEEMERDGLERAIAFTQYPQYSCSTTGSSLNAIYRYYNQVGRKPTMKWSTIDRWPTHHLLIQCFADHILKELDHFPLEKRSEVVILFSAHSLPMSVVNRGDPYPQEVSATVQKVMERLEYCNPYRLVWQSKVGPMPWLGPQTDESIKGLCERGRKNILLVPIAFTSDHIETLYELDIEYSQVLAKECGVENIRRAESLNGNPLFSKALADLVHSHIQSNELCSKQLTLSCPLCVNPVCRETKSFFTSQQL

MST2 = target: T3, MST2 (Homo sapiens, UniProt Q13188)
T3 sequence (Q13188 1-491): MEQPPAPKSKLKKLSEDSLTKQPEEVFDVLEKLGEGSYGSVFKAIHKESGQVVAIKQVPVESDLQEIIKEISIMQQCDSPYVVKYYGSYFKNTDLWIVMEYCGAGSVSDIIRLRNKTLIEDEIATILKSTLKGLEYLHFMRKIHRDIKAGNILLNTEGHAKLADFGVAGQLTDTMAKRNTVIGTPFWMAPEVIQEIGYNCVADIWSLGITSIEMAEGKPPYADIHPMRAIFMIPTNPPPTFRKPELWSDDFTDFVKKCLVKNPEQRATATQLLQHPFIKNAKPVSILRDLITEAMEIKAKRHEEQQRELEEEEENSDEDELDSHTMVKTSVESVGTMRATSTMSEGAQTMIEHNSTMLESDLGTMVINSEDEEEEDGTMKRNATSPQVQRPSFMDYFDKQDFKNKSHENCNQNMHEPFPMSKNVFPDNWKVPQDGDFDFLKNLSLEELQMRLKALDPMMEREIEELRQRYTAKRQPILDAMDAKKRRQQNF

Haspin = target: T4, Haspin (Homo sapiens, UniProt Q8TF76)
T4 sequence (Q8TF76 1-798): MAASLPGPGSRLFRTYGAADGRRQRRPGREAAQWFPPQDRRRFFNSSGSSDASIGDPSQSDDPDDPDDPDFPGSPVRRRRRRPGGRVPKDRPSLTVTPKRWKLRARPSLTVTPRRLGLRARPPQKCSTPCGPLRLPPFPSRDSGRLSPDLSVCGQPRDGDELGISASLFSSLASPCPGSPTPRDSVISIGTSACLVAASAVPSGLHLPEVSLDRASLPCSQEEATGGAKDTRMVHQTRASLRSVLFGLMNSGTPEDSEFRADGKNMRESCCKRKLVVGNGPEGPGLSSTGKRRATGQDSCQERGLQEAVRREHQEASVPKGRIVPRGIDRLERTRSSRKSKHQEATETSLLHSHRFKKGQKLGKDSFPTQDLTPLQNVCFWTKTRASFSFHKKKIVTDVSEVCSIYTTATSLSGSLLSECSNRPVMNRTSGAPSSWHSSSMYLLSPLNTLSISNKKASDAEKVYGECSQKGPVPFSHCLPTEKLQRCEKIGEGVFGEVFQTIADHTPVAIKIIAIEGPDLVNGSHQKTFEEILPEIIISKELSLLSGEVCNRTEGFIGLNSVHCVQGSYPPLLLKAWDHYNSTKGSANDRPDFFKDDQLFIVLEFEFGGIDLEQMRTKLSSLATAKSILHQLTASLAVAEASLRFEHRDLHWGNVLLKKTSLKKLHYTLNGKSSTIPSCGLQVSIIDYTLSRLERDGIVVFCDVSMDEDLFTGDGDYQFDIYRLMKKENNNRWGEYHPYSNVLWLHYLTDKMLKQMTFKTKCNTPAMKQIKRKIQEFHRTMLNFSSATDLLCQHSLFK

Q: For `Cc1cccc(-c2ccc(-c3cc4cnc(NCCCN5CCCC5=O)nc4n(CCCCN)c3=O)c(Cl)c2)n1` [compound 27, MR30], which “ΔTm MR30 (27)” value (MER) is on record?
A: 0.7 °C

Q: And the “ΔTm MR30 (27)” value (FECH)?
A: 0.5 °C

Q: And the “ΔTm MR30 (27)” value (MST2)?
A: 5.9 °C

Q: And the “ΔTm MR30 (27)” value (Haspin)?
A: -0.7 °C

Q: Which results are given for `Cc1cccc(-c2ccc(-c3cc4cnc(Nc5cc(C(F)(F)F)ccc5C)nc4n(CCCCN)c3=O)c(Cl)c2)n1` [compound 28, 8-(4-Aminobutyl)-6-(2-chloro-4-(6-methylpyridin-2-yl)phenyl)-2-((2-methyl-5-(trifluoromethyl)phenyl)amino)pyrido[2,3-d]pyrimidin-7(8H)-one]?
A: ΔTm 28 (MER): 0.1 °C; ΔTm 28 (FECH): 10.6 °C; ΔTm 28 (MST2): 10.1 °C; ΔTm 28 (Haspin): -1.3 °C

Q: For `Cc1cccc(-c2ccc(-c3cc4cnc(NCCCN5CCNCC5)nc4n(CCCCN)c3=O)c(Cl)c2)n1` [compound 29, 8-(4-Aminobutyl)-6-(2-chloro-4-(6-methylpyridin-2-yl)phenyl)-2-((3-(piperazin-1-yl)propyl)amino)pyrido[2,3-d]pyrimidin-7(8H)-one], which “ΔTm 29” value (MER) is on record?
A: 1.0 °C

Q: And the “ΔTm 29” value (FECH)?
A: -0.4 °C

Q: And the “ΔTm 29” value (MST2)?
A: 9.1 °C

Q: What about the “ΔTm 29” value (Haspin) of the same compound?
A: -1.2 °C

Q: `Cc1cccc(-c2ccc(-c3cc4cnc(Nc5ccc(CCCO)cc5)nc4n(CCCCN)c3=O)c(Cl)c2)n1` [compound 30, 8-(4-Aminobutyl)-6-(2-chloro-4-(6-methylpyridin-2-yl)phenyl)-2-((4-(3-hydroxypropyl)phenyl)amino)pyrido[2,3-d]pyrimidin-7(8H)-one] was tested. Which “ΔTm 30” value (MER) did it give?
A: 3.1 °C

Q: And the “ΔTm 30” value (FECH)?
A: 0.5 °C

Q: What about the “ΔTm 30” value (MST2) of the same compound?
A: 15.0 °C

Q: And the “ΔTm 30” value (Haspin)?
A: 0.4 °C

Q: Which “ΔTm 31” value (MER) does the source give for `Cc1cccc(-c2ccc(-c3cc4cnc(Nc5ccc(O)cc5)nc4n(CCCCN)c3=O)c(Cl)c2)n1` [compound 31, 8-(4-Aminobutyl)-6-(2-chloro-4-(6-methylpyridin-2-yl)phenyl)-2-((4-hydroxyphenyl)amino) pyrido[2,3-d]pyrimidin-7(8H)-one] here?
A: 3.3 °C

Q: And the “ΔTm 31” value (FECH)?
A: 2.0 °C

Q: What about the “ΔTm 31” value (MST2) of the same compound?
A: 14.3 °C

Q: And the “ΔTm 31” value (Haspin)?
A: -0.4 °C

Q: How did the “ΔTm 32” value (MER) turn out when `Cc1cccc(-c2ccc(-c3cc4cnc(Nc5ccc(C)c(O)c5)nc4n(CCCCN)c3=O)c(Cl)c2)n1` [compound 32, 8-(4-Aminobutyl)-6-(2-chloro-4-(6-methylpyridin-2-yl)phenyl)-2-((3-hydroxy-4-methylphenyl)amino)pyrido[2,3-d]pyrimidin-7(8H)-one] was run?
A: 2.8 °C

Q: And the “ΔTm 32” value (FECH)?
A: 3.8 °C

Q: And the “ΔTm 32” value (MST2)?
A: 14.7 °C

Q: And the “ΔTm 32” value (Haspin)?
A: -1.5 °C
